From US7820624B2, “Peptide ligands” (ICH Productions Limited, priority 2003, dated 2010) come the findings set out here.

Assay [1] has as its system day 4 immature dendritic cells. The experiment in a line: Phenotyping of LID-transfected dendritic cells (HLA-DR, CD86). It is filed as cell-based, human. The note with it: LID with lipofectin, peptide:DNA 7:1. As to the method:
Immature day 4 dendritic cells were transfected with LID complex with peptide A at a charge ratio 7:1 to the DNA (plasmid pEGFP-N1), with lipofectin added at a weight ratio of 0.75 to the DNA for 4 hours in RPMI before incubating in complete medium with cytokines for 24 hours. As a control, dendritic cells were incubated in complete medium for 24 hours (immature Dendritic cells) Cells were then harvested by scraping and stained for the presence of maturation markers as follows: a minimum of 5×10^4 cells in a volume of less than 2 ml medium were added to the recommended amount of antibody and incubated for 20 min on ice. 2 ml of ice-cold PBS was added before centrifugation at 300×g for 5 min at 4° C. The supernatant was flicked off and the pellet resuspended in 300 μl ice cold 1% paraformaldehyde-PBS. Cells from each sample were stained with antibodies to HLA-DR, and CD86 and isotype matched control antibodies. Cells were analysed by flow cytometry using a Epics XL (Beckman Coulter, High Wycombe, UK.) and the EXPO32 analysis software (Beckman Coulter).

For assay [2], the system named is human monocyte-derived primary macrophages. Nature of the assay: Adenoviral transduction of primary macrophages. It is filed as cell-based. The note with it: 10,000 viral particles/cell in 2.5% serum. As to the method:
(§1) Day 6 dendritic cells (see Example 1(v) above), or mouse bone marrow derived dendritic cells or mouse Sca1+ve stem cells, see (i) and (ii) above, were plated at 5×10^4 cells per well in a 48 well plate in 500 μl complete medium and allowed to settle for 3 hours at 37° C. Transductions were carried out in complete media, with virus being added at 100,000 viral particles/cell for 24 hours. Cells were harvested by scraping, spun down at 650 g (2000 rpm) for 5 min, resuspended in 300 μl PBS, and kept on ice before analysis. Viral transduction as determined by percentage of GFP positive cells was measured by FACS analysis. To measure percentage viability, 10 μl of 7-amino-actinomycin D (7AAD; Sigma, Poole, Dorset) was added immediately prior to analysis. Viral transduction of macrophages was carried out at 10,000 particles/cell in medium containing 2.5% FCS. For other cell types, cells were seeded overnight at 5×10^4 cells per well in 24-well plates in the appropriate media. Adenovirus was added in OptiMEM at 10,000 viral particles/cell, 1 ml per well in triplicate and incubated for 24 h at 37° C. Cells were then washed twice in PBS, trypsinised, triplicate wells pooled, spun down at 350×g for 5 min and resuspended in 300 μl PBS before analysis by flow cytometry where cell viability was to be measured, 10 μl 7AAD was added just prior to analysis.
10 mls of peripheral blood were diluted 1:1 with HBSS then layered on Lymphoprep (Nycomed), spun at 750 g for 30 min and purified […] were isolated from the interface. Excess Lymphoprep was removed by spinning cells down at 250 g for 10 min and any platelets present were removed by washing in HBSS twice, spinning the cells at 1200 rpm for 10 min each time. Monocytes were then isolated using MACs CD14 microbeads as described in the manufacturer's protocol. The mononuclear cells were plated into a […] flask in 10% FCS, RPMI for 1-2 hours (1 flask per 10 ml blood) before removing the supernatant and adding fresh 10% FCS, RPMI+10 ng/ml MCSF (macrophage colony stimulating factor). Half the medium was replaced with fresh 10% FCS, RPMI+MCSF (10 ng/ml) after 48 hours and the cells were used at day 6, harvesting by scraping the cells from the well.
Viral transduction was carried out at 10,000 particles/cell in medium containing 2.5% FCS. Viral transduction as determined by percentage of GFP positive cells was measured by FACS analysis. Cells were pooled from three separate transduction experiments for the calculation of results.

In the next assay the test system is 1HAEo- cells. The experiment in a line: Adenoviral transduction of 1HAEo- cells. It is filed as cell-based, human. The note with it: 10,000 particles per cell in OptiMEM; listed as peptide A. How it is done: as §1, with “For other cell types, cells were seeded overnight at 5×10^4 cells per well in 24-well plates in the appropriate media. Adenovirus was added in OptiMEM at 10,000 viral particles/cell, 1 ml per well in triplicate and incubated for 24 h at 37° C.” left out
(§2) For transduction of these other cell types, cells were seeded overnight at 5×10^4 cells per well in 24 well plates in the appropriate media. […] Where cell viability was to be measured, 10 μl 7-amino-actinomycin D (7AAD; Sigma, Poole, Dorset) was added just prior to analysis. […]

For another assay, the system named is Neuro-2A cells. The experiment in a line: Adenoviral transduction of Neuro-2A cells. It is filed as cell-based, mouse. The note with it: 10,000 particles per cell in OptiMEM. As to the method:
as §1, with “For other cell types, cells were seeded overnight at 5×10^4 cells per well in 24-well plates in the appropriate media. Adenovirus was added in OptiMEM at 10,000 viral particles/cell, 1 ml per well in triplicate and incubated for 24 h at 37° C.” left out
as §2

The test system of another assay is HMEC-1 cells. The experiment in a line: Adenoviral transduction of HMEC-1 cells. It is filed as cell-based, human. To be noted: 10,000 particles per cell in OptiMEM; listed as peptide A. How it is done:
as §1, with “For other cell types, cells were seeded overnight at 5×10^4 cells per well in 24-well plates in the appropriate media. Adenovirus was added in OptiMEM at 10,000 viral particles/cell, 1 ml per well in triplicate and incubated for 24 h at 37° C.” left out
as §2

In the case of “SHVKLNS (Synthetic peptide binding to dendritic cells) [listing 1 of 2 here]”, the “HLA-DR and CD86 on transfected cells” value in assay [1] was “upregulated CD86 and HLA-DR”.
Consider “SHVKLNS (Synthetic peptide binding to dendritic cells) [listing 2 of 2 here]”, for which the “Transduction, % cells transduced” value in assay [2] (listed as A) came out at 67.6%; in assay [2] (listed as peptide A), 67.6%; in the assay with 1HAEo- cells it was 82.9%; with HMEC-1 cells, 95.7%. The “Transduction, % GFP-positive cells” value in the assay on Neuro-2A cells came to 63.5%.
